From US20130109734A1 (Metabolex, Inc., priority 2010, published 2013)

These compounds were tested against T1, human GPR120 (Homo sapiens, UniProt Q5NUL3) (assay: Intracellular Ca2+ assay in human GPR120 stable cell line (HEK293 co-expressing Gqi5), Flexstation). Settings: % activity at 5 μM compared to the maximal activity of GW9508 at 6.7 μM (=100%); human GPR120 cells, Ca2+ fluorescence.
T1 construct: host or cells: HEK293 cells co-expressing Gqi5
T1 sequence (Q5NUL3 1-361): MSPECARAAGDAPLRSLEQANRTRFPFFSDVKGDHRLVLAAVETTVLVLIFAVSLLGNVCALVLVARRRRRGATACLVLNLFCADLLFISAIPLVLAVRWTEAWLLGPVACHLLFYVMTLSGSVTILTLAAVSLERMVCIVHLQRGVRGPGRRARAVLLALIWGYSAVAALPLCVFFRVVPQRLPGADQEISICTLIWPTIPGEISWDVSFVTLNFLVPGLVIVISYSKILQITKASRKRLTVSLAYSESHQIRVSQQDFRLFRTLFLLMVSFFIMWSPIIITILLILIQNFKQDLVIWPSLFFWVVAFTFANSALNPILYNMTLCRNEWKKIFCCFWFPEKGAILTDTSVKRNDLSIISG
Type: cell-based
Procedure: Human GPR120 stable cell line was purchased from Multispan Inc (26219 Eden Landing Road, Hayward, Calif. 94545). This GPR120 cell line was generated in HEK293 cells co-expressing Gqi5. In this cell line, the Flag epitope tag (DYKDDDDK) was fused to the amino terminus of human GPR120 protein.
The concentration of intracellular Ca^2+ was measured as described below. Human GPR120 cells were plated in 96 well plates (Poly-D-Lysine coated black/clear Plate, Greiner Bio-One) at 70,000 cells per well and cultured overnight in conditions of 37° C. and 5% CO2. A Ca^2+assay dye stock solution was prepared by adding 10 mL of assay buffer (HBSS/20 mM HEPES, pH 7.4) to FLIPR Calcium 4 Assay Bulk Kit (Molecular Devices). The 10 mL of Ca^2+ assay dye solution was prepared by further diluting 0.5 mL of Ca^2+ assay dye stock solution with 10 mL of assay buffer. The medium of the cells was removed and immediately 100 μL of the Ca^2+ assay dye solution was dispensed into each well followed by incubation at 37° C. and 5% CO2 for 50 minutes to incorporate the Ca^2+ dye into the cells. The cell plate was then placed in the Flexstation (Molecular Devices) for 20 minutes at 37° C. Compounds were dissolved in 100% DMSO and diluted to desired concentrations with assay buffer and placed in the Flexstation simultaneously with the cell plate for 20 minute incubation at 37° C. prior to reading. Fluorescence intensity was measured immediately following compound addition (25 μL/well) on the Flexstation at an excitation wavelength of 485 nm and an emission wavelength of 525 with 515 nm auto cutoff. The resulting increase in fluorescence intensities corresponds to increases in intracellular Ca^2+ levels.
Compounds were dissolved in 100% DMSO to a concentration of 20 mM to provide stock solutions. To determine activity against human GPR120, compounds were added with human GPR120 stably expressing cells (described above), at eight desired concentrations ranging from 0.00001 to 20 μM, in 96 well plates and fluorescence intensities were measured for 90 seconds with 2-second intervals. An EC50 value (concentration of the GPR120 agonist where 50% of the agonist's maximal activity is observed) was calculated using the changes (Max−Min) of fluorescence intensity.
To determine percent activity for a tested compound, the fluorescence intensity value obtained at a particular concentration were compared to the maximal fluorescence intensity value obtained for reference compound GW9508 (4-[[(3-phenoxyphenyl)methyl]amino]benzene propanoic acid; British Journal of Pharmacology 2006 148, 619-628) or the compound of Example 25. When GW9508 was used as the reference compound, the maximal activity of GW9508 at 6.7 μM was designated as 100% activity. When the compound of Example 25 was used as the reference compound, the maximal activity of the compound of Example 25 at 2.5 μM was designated as 100% activity. Typically, the GW9508 activity reached a maximum at a concentration of approximately 6.7 μM and typically the compound of Example 25 reached a maximum activity at approximately 2.5 μM.

Row | Compound | % Activity (GW9508 Reference Compound)
1 | CC1(C)Cc2cc(Cl)cc(COc3ccc(CCC(=O)O)c(F)c3)c2O1 [Example 53, 3-(4-((5-chloro-2,2-dimethyl-2,3-dihydrobenzofuran-7-yl)methoxy)-2-fluorophenyl)-propanoic acid] | 143.19%
2 | CC1(C)Cc2cc(F)cc(COc3ccc4c(CC(=O)O)coc4c3)c2O1 [Example 262, 2-(6-((5-fluoro-2,2-dimethyl-2,3-dihydrobenzofuran-7-yl)methoxy)benzofuran-3-yl)acetic acid] | 137.39%
3 | CC(Cc1ccc(OCc2ccc(F)c3c2CC(C)(C)O3)cc1)C(=O)O (stereo not drawn) [Example 91, 3-(4-((7-fluoro-2,2-dimethyl-2,3-dihydrobenzofuran-4-yl)methoxy)phenyl)-2-methylpropanoic acid] | 121.29%
4 | CC1(C)Cc2cc(F)cc(COc3c(F)cc(CC4CC4C(=O)O)cc3F)c2O1 (single isomer, unassigned) [Example 184B, 2-(3,5-difluoro-4-((5-fluoro-2,2-dimethyl-2,3-dihydrobenzofuran-7-yl)methoxy)benzyl)cyclopropanecarboxylic acid] | 130.66%
5 | CC(Cc1cc(F)c(OCc2cccc3cn[nH]c23)c(F)c1)C(=O)O (stereo not drawn) [Example 260, 3-(4-((1H-indazol-7-yl)methoxy)-3,5-difluorophenyl)-2-methylpropanoic acid] | 16.67%
6 | CC(Cc1ccc(OCc2cc(-c3ccc(Cl)cc3)cc3c2OC(C)(C)C3)cc1)C(=O)O (stereo not drawn) [Example 82, 3-(4-((5-(4-chlorophenyl)-2,2-dimethyl-2,3-dihydrobenzofuran-7-yl)methoxy)phenyl)-2-methylpropanoic acid] | 24%
7 | CC1(C)Cc2cc(Cl)cc(COc3ccc4c(c3)CCC4CC(=O)O)c2O1 (stereo not drawn) [Example 36, 2-(5-((5-chloro-2,2-dimethyl-2,3-dihydrobenzofuran-7-yl)methoxy)-2,3-dihydro-1H-inden-1-yl)acetic acid] | 122.9%
8 | CC1(C)Cc2cc(Cl)cc(COc3ccccc3CCC(=O)O)c2O1 [Example 250, 3-(2-((5-chloro-2,2-dimethyl-2,3-dihydrobenzofuran-7-yl)methoxy)phenyl)propanoic acid] | 10.23%
9 | Cc1cc(CCC(=O)O)c(C)c(C)c1OCc1cc(F)cc2c1OC(C)(C)C2 [Example 254, 3-(4-((5-fluoro-2,2-dimethyl-2,3-dihydrobenzofuran-7-yl)methoxy)-2,3,5-trimethylphenyl) propanoic acid] | 146.14%
10 | CN(C)Cc1cc(OCc2cc(F)cc3c2OC(C)(C)C3)ccc1CCC(=O)O [Example 122, 3-(2-((dimethylamino)methyl)-4-((5-fluoro-2,2-dimethyl-2,3-dihydrobenzofuran-7-yl)methoxy)phenyl)propanoic acid] | 3.58%
11 | CC(Cc1ccc(OCc2cc(Cl)cc3c2OC(C)(C)C3)cc1Cl)C(=O)O (stereo not drawn) [Example 26, 3-(2-chloro-4-((5-chloro-2,2-dimethyl-2,3-dihydrobenzofuran-7-yl)methoxy)phenyl)-2-methylpropanoic acid] | 163.7%
12 | CC(=O)NCCOC(=O)C(C)Cc1ccc(OCc2cc(Cl)cc3c2OC(C)(C)C3)c(C(F)(F)F)c1 (stereo not drawn) [Example 126, 2-acetamidoethyl 3-(4-((5-chloro-2,2-dimethyl-2,3-dihydrobenzofuran-7-yl)methoxy)-3-(trifluoromethyl)phenyl)-2-methylpropanoate] | 47.02%
13 | CC(Cc1ccc(OCc2ccc(F)c3c2OC(C)(C)C3)cc1)C(=O)O (stereo not drawn) [Example 30, 3-(4-((4-fluoro-2,2-dimethyl-2,3-dihydrobenzofuran-7-yl)methoxy)phenyl)-2-methylpropanoic acid] | 176.6%
14 | COc1cc(COc2ccc(CC(C)C(=O)O)cc2)c2c(c1)CC(C)(C)O2 (stereo not drawn) [Example 108, 3-(4-((5-methoxy-2,2-dimethyl-2,3-dihydrobenzofuran-7-yl)methoxy)phenyl)-2-methylpropanoic acid] | 143.85%
15 | COc1cc(CC(C)C(=O)O)ccc1OCc1cc(F)cc2c1OC(C)(C)C2 (stereo not drawn) [Example 7, 3-(4-((5-fluoro-2,2-dimethyl-2,3-dihydrobenzofuran-7-yl)methoxy)-3-methoxyphenyl)-2-methylpropanoic acid] | 168.2%
16 | CC(Cc1cc(F)c(OCc2ccc(C(F)(F)F)c3c2OC(C)(C)C3)c(F)c1)C(=O)O (stereo not drawn) [Example 32, 3-(4-((2,2-dimethyl-4-(trifluoromethyl)-2,3-dihydrobenzofuran-7-yl)methoxy)-3,5-difluorophenyl)-2-methylpropanoic acid] | 143.1%
17 | CC1(C)Cc2cc(F)cc(COc3ccc(CCC(=O)O)c(Cl)c3)c2O1 [Example 47, 3-(2-chloro-4-((5-fluoro-2,2-dimethyl-2,3-dihydrobenzofuran-7-yl)methoxy)phenyl)propanoic acid] | 111.18%
18 | CC(C)Oc1ncccc1COc1ccc2c(c1)CCC2CC(=O)O (stereo not drawn) [Example 259, 2-(5-((2-isopropoxypyridin-3-yl)methoxy)-2,3-dihydro-1H-inden-1-yl)acetic acid] | 118.5%
19 | Cc1cc(CC(C)C(=O)O)ccc1OCc1cc(F)cc2c1OC(C)(C)C2 (stereo not drawn) [Example 6, 3-(4-((5-fluoro-2,2-dimethyl-2,3-dihydrobenzofuran-7-yl)methoxy)-3-methylphenyl)-2-methylpropanoic acid] | 147.3%
20 | CCCc1cc(OCc2cc(Cl)cc3c2OC(C)(C)C3)c(F)cc1CCC(=O)O [Example 73, 3-(4-((5-chloro-2,2-dimethyl-2,3-dihydrobenzofuran-7-yl)methoxy)-5-fluoro-2-propylphenyl)propanoic acid] | 114.85%
21 | CC1(C)Cc2cc(F)cc(COc3ccc(CC(=O)O)cc3)c2O1 [Example 133, 2-(4-((5-fluoro-2,2-dimethyl-2,3-dihydrobenzofuran-7-yl)methoxy)phenyl)acetic acid] | 103.4%
22 | COc1cc(OCc2cc(Cl)cc3c2OC2(CCCC2)C3)ccc1CCC(=O)O [Example 194, 3-(4-((5-chloro-3H-spiro[benzofuran-2,1′-cyclopentane]-7-yl)methoxy)-2-methoxyphenyl)propanoic acid] | 148.21%
23 | CC1(C)Cc2cc(Cl)cc(COc3cc(F)c(CCC(=O)O)c(F)c3)c2O1 [Example 54, 3-(4-((5-chloro-2,2-dimethyl-2,3-dihydrobenzofuran-7-yl)methoxy)-2,6-difluorophenyl)propanoic acid] | 138.97%
24 | CC(Cc1cc(F)c(OCc2cccc3c2CC(C)(C)O3)c(F)c1)C(=O)O (stereo not drawn) [Example 21, 3-(4-((2,2-dimethyl-2,3-dihydrobenzofuran-4-yl)methoxy)-3,5-difluorophenyl)-2-methylpropanoic acid] | 112.6%
